Results as given in ChEMBL document CHEMBL1201862, “PubChem BioAssay data set” (2004).
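How tested: cells in 96-well plates exposed to compound for 48 hours at five concentrations. Abbreviation: GI50, concentration required for 50% inhibition of growth.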 Activity calls are given as the source filed them. Cut-off read from the data, not from the text of the source: active = GI50 up to about 1.1 µM and inactive = higher.

Tests used:
Experiment in all cases: growth of human tumour cells (NCI), 48 h
IGROV-1 = test system: IGROV-1
CCRF-CEM = test system: CCRF-CEM
NCI-H460 = test system: NCI-H460
NCI-H23 = test system: NCI-H23
Malme-3M = test system: Malme-3M
MDA-MB-435 = test system: MDA-MB-435
SK-MEL-2 = test system: SK-MEL-2
SW-620 = test system: SW-620
HCC 2998 = test system: HCC 2998
OVCAR-3 = test system: OVCAR-3
HCT-15 = test system: HCT-15
MOLT-4 = test system: MOLT-4
DU-145 = test system: DU-145
SK-MEL-5 = test system: SK-MEL-5
A498 = test system: A498
RPMI-8226 = test system: RPMI-8226
UACC-62 = test system: UACC-62
OVCAR-5 = test system: OVCAR-5
KM12 = test system: KM12
HL-60 = test system: HL-60

SMILES	GI50 (IGROV-1)	GI50 (CCRF-CEM)	GI50 (NCI-H460)	GI50 (NCI-H23)	GI50 (Malme-3M)	GI50 (MDA-MB-435)	GI50 (SK-MEL-2)	GI50 (SW-620)	GI50 (HCC 2998)	GI50 (OVCAR-3)	GI50 (HCT-15) [µM]	GI50 (MOLT-4)	GI50 (DU-145)	GI50 (SK-MEL-5)	GI50 (A498)	GI50 (RPMI-8226)	GI50 (UACC-62)	GI50 (OVCAR-5)	GI50 (KM12)	GI50 (HL-60)
CC1(C)Oc2ccc(Cl)cc2C12CC2	14.7 µM (inactive)	22.7 µM (inactive)	17.8 µM (inactive)	20.1 µM (inactive)	23.4 µM (inactive)	15.5 µM (inactive)	16 µM (inactive)	11.8 µM (inactive)	15.8 µM (inactive)	13.8 µM (inactive)	17.1	17.1 µM (inactive)	15.8 µM (inactive)	18 µM (inactive)	15.1 µM (inactive)	16.1 µM (inactive)	40.5 µM (inactive)	17.4 µM (inactive)	17.7 µM (inactive)	18.5 µM (inactive)
O=c1[nH]c2cccc([N+](=O)[O-])c2c(=O)n1-c1ccc(Cl)cc1	16.7 µM (inactive)	17.4 µM (inactive)	4.4 µM (inactive)	20.3 µM (inactive)	12.8 µM (inactive)	6.64 µM (inactive)	9.86 µM (inactive)	10.4 µM (inactive)	14 µM (inactive)	10.8 µM (inactive)	12.1	19 µM (inactive)	15.1 µM (inactive)	9.71 µM (inactive)	13.9 µM (inactive)	13.6 µM (inactive)	5.3 µM (inactive)	16.3 µM (inactive)	15.2 µM (inactive)	11.7 µM (inactive)
COc1cc(/N=N/c2cccc(S(N)(=O)=O)c2)c2ccccc2c1N	10.3 µM (inactive)	8.17 µM (inactive)	9.98 µM (inactive)	2.02 µM (inactive)	1.7 µM (inactive)	2 µM (inactive)	2.26 µM (inactive)	23.9 µM (inactive)	8.04 µM (inactive)	4.86 µM (inactive)	18.2	5.65 µM (inactive)	1.9 µM (inactive)	1.8 µM (inactive)	19.7 µM (inactive)	16.3 µM (inactive)	2.07 µM (inactive)	17.5 µM (inactive)	12.9 µM (inactive)	5.2 µM (inactive)
CCN1C=C/C(=C\C=C\c2cc[n+](CC)c3ccccc23)c2ccccc21	3.59 µM (inactive)	4.52 µM (inactive)	3.4 µM (inactive)	2.87 µM (inactive)	13.4 µM (inactive)	4.21 µM (inactive)	7.62 µM (inactive)	4.62 µM (inactive)	7.24 µM (inactive)	2.49 µM (inactive)	16.4	3.2 µM (inactive)	4.92 µM (inactive)	8.99 µM (inactive)	3.78 µM (inactive)	3.07 µM (inactive)	10.8 µM (inactive)	4.12 µM (inactive)	3.42 µM (inactive)	0.0135 µM (active)
CC1(c2cccs2)CC(c2cccs2)=C(C#N)C(=C(C#N)C#N)N1 (stereo not given)	17.7 µM (inactive)	0.519 µM (active)	20.2 µM (inactive)	19.4 µM (inactive)	19.2 µM (inactive)	17.4 µM (inactive)	17.8 µM (inactive)	11.4 µM (inactive)	15.9 µM (inactive)	16.3 µM (inactive)	16.4	44.7 µM (inactive)	15.6 µM (inactive)	14.6 µM (inactive)	18.7 µM (inactive)	17.5 µM (inactive)	15 µM (inactive)	21.5 µM (inactive)	17.1 µM (inactive)	10.1 µM (inactive)
CC(=O)Oc1c(C)c2c(O)c3c1C1=C(OCOC1=C(C)C3=O)/C(C)=C/C(C)(O)C(O)C(C)C(O)C1C(=O)OC(C(C)C1O)C(C)(O)/C=C\C=C(C)C(=O)N2 (stereo not given)	5.66 µM (inactive)	21.5 µM (inactive)	> 100 µM (inactive)	50.5 µM (inactive)	41.9 µM (inactive)	> 100 µM (inactive)	34.4 µM (inactive)	63 µM (inactive)	69.5 µM (inactive)	43.3 µM (inactive)	48.9	36.1 µM (inactive)	45.4 µM (inactive)	32.4 µM (inactive)	15.1 µM (inactive)	86.9 µM (inactive)	30.8 µM (inactive)	4.46 µM (inactive)	34.8 µM (inactive)	3.25 µM (inactive)
COc1nc2nccnc2c(=O)n1C	> 10 µM (inactive)	> 10 µM (inactive)	> 10 µM (inactive)	> 10 µM (inactive)	> 10 µM (inactive)	> 10 µM (inactive)	> 10 µM (inactive)	> 10 µM (inactive)	> 10 µM (inactive)	> 10 µM (inactive)	> 10	> 10 µM (inactive)	> 10 µM (inactive)	> 10 µM (inactive)	> 10 µM (inactive)	> 10 µM (inactive)	> 10 µM (inactive)	> 10 µM (inactive)	> 10 µM (inactive)	> 10 µM (inactive)
Cc1ccc2[nH]/c(=N/S(=O)(=O)c3cc(C)c(Cl)cc3S)[nH]c2c1	34.4 µM (inactive)	21.4 µM (inactive)	16.4 µM (inactive)	66.2 µM (inactive)	> 100 µM (inactive)	28.4 µM (inactive)	78.3 µM (inactive)	43.8 µM (inactive)	> 100 µM (inactive)	91.2 µM (inactive)	67.9	25.6 µM (inactive)	> 100 µM (inactive)	31.3 µM (inactive)	52.8 µM (inactive)	40 µM (inactive)	> 100 µM (inactive)	> 100 µM (inactive)	41.6 µM (inactive)	28.8 µM (inactive)
COc1cc2c(cc1O)[C@]1(Cc3ccc4c(c3C1=O)OCO4)N(C)CC2	> 100 µM (inactive)	> 100 µM (inactive)	> 100 µM (inactive)	> 100 µM (inactive)	> 100 µM (inactive)	> 100 µM (inactive)	> 100 µM (inactive)	> 100 µM (inactive)	> 100 µM (inactive)	> 100 µM (inactive)	> 100	> 100 µM (inactive)	> 100 µM (inactive)	> 100 µM (inactive)	> 100 µM (inactive)	> 100 µM (inactive)	> 100 µM (inactive)	> 100 µM (inactive)	> 100 µM (inactive)	> 100 µM (inactive)
COc1cc(C(c2c(O)c3ccccc3oc2=O)c2c(O)c3ccccc3oc2=O)ccc1O	11.3 µM (inactive)	28.8 µM (inactive)	20.9 µM (inactive)	39 µM (inactive)	19 µM (inactive)	33 µM (inactive)	25.2 µM (inactive)	23.7 µM (inactive)	18.9 µM (inactive)	19.5 µM (inactive)	17.4	21.1 µM (inactive)	21.6 µM (inactive)	15.7 µM (inactive)	51.9 µM (inactive)	34.6 µM (inactive)	18.5 µM (inactive)	18.7 µM (inactive)	32.7 µM (inactive)	24.7 µM (inactive)
